{
  "source": "patent US20230348358A1",
  "about": "“Serotonin Receptor Modulators” (Northeastern University, priority 2020, published 2023)",
  "key": {"5HT2A receptors": {"molecular_target": "T1, 5HT2A receptors (Homo sapiens, UniProt P28223)", "T1 construct": "host or cells: HEK293, transient", "T1 sequence (P28223 whole entry)": "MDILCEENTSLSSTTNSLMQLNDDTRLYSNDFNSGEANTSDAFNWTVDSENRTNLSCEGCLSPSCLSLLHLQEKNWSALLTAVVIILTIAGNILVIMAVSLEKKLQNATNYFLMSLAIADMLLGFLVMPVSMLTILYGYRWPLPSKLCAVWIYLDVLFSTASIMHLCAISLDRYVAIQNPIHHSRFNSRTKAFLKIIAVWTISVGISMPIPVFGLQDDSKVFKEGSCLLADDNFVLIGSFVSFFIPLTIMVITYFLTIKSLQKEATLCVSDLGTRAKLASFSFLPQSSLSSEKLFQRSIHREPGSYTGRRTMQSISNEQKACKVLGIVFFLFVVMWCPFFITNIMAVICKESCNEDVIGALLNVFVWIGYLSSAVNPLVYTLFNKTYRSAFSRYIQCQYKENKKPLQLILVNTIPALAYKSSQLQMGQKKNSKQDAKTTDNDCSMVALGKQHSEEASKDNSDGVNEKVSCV", "test": "biochemical", "format": "binding"}, "5HT2B receptors": {"molecular_target": "T2, 5HT2B receptors (Homo sapiens, UniProt P41595)", "T2 construct": "host or cells: HEK293, transient", "T2 sequence (P41595 whole entry)": "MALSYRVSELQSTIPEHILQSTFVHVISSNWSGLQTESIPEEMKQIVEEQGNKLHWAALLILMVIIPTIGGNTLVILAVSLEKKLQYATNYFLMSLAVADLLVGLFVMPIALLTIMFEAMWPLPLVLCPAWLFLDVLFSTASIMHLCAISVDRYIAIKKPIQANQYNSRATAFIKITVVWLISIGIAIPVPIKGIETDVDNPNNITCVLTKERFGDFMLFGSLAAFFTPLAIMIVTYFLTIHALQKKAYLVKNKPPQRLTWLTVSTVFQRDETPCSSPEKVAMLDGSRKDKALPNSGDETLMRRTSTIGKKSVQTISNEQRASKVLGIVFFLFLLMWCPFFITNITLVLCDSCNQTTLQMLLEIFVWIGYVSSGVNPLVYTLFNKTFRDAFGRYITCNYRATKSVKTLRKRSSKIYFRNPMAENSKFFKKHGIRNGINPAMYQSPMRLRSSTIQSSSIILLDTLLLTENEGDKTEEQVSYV", "test": "Affinity at 5HT2B receptors", "format": "binding"}, "D2 receptors": {"molecular_target": "T3, D2 receptors (Homo sapiens, UniProt P14416)", "T3 construct": "host or cells: HEK293, transient", "T3 sequence (P14416 whole entry)": "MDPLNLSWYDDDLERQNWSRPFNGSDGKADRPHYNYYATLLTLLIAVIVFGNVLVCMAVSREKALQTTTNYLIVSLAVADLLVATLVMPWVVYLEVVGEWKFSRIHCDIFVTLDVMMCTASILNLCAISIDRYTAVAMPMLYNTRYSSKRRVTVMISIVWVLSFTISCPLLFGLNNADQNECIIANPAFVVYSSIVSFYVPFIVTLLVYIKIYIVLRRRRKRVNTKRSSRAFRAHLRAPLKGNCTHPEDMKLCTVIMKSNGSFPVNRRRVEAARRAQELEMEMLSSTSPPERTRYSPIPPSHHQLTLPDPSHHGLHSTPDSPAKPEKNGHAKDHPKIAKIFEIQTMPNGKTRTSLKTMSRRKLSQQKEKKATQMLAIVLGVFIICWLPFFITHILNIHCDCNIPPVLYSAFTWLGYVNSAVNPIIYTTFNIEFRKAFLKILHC", "test": "Affinity at dopamine D2 receptors", "format": "binding"}, "50 CNS/peripheral sites": {"tested_on": "50 CNS/peripheral sites", "test": "NIMH PDSP / NIDA evaluation at 50 CNS/peripheral sites", "format": "binding"}, "C58/J mice": {"tested_on": "C58/J mice", "test": "Idiopathic stereotypic jumping", "format": "in vivo, mouse", "conditions": "dose-dependent; listed as (2S)-5-FPT, HCl"}, "C57BL/6J mice": {"tested_on": "C57BL/6J mice", "test": "DOI-elicited head-twitch response (HTR)", "format": "in vivo, mouse", "from_the_text": "The 5-HT2A receptor is a predominant 5-HT receptor in the cortex, and serves important excitation modulation functions on glutamate pyramidal and GABA neurons."}, "C57BI/6J mice [1]": {"tested_on": "C57BI/6J mice", "test": "MK-801 elicited stereotypic rotations and hyperlocomotion", "format": "in vivo, mouse", "from_the_text": "Regarding glutamate neurotransmission in stereotypy, the NMDA receptor antagonist, MK-801, characteristically elicits stereotypic rotations that appear to mimic monogenetic stereotypy observed in Fmr1 KO mice. Furthermore, mutations and autoantibodies of the NMDA glutamate receptor that decrease its function are causally linked to ASD, intellectual disabilities, and psychiatric symptoms in humans."}, "C57BI/6J mice [2]": {"tested_on": "C57BI/6J mice", "test": "d-Amphetamine (AMP)-elicited hyperlocomotion", "format": "in vivo, mouse", "conditions": "5.6 mg/kg; listed as (2S)-5-FPT, HCl"}, "FVB mice": {"tested_on": "FVB mice", "test": "Marble burying", "conditions": "mouse, in vivo", "description": "For measurement of marble burying (FIG. 7), FVB mice were placed individually, for 10 min, in clean boxes (6 in. ×10 in. ×5 in.) containing 18 clear marbles atop fresh home-bedding. Marbles buried (i.e., marbles 50% covered with bedding) were calculated after the test session."}, "[3]": {"tested_on": "mice (C57BL/6J, FVB, C58/J)", "test": "Locomotor behavior, compound on its own", "format": "in vivo, mouse", "conditions": "compound on its own or in the DOI assay; listed as (2S)-5-FPT, HCl"}, "C57BI/6J mice [4]": {"tested_on": "C57BI/6J mice", "test": "Social interactions between littermates", "format": "in vivo, mouse", "conditions": "5.6 mg/kg", "from_the_text": "After behavioral testing was complete, blind scorers categorized mice into two groups based on number of rears and initiated social interactions, and the two groups differentiated vehicle from (2S)-5-FPT-treated mice with 100% accuracy."}, "[5]": {"test": "Plasma and brain concentrations by LC-MS/MS after systemic administration", "format": "in vivo, mouse", "conditions": "for concentration at 30 min / concentration at 60 min / concentration at 90 min: 3.0 mg/kg subcutaneous, mean (SEM); for concentration at 30 min: 30 min after injection; for concentration at 60 min: 60 min after injection; for concentration at 90 min: 90 min after injection", "from_the_text": "(2S)-5-FPT is neurobehaviorally active after oral administration."}, "[6]": {"tested_on": "Fmr1 knockout and wild-type mice", "test": "c-Fos immunohistochemistry in brain of wild-type and Fmr1 knockout mice", "format": "in vivo, mouse", "conditions": "for c-Fos expression in the inferior colliculus: juvenile Fmr1 knockout mice, 30 seconds 120 dB alarm", "description": "Brains are excised and post-fixed overnight in 4% paraformaldehyde, followed by 20% glycerol in TBS for at least 24 hrs. Coronal sections (40 μm) traversing regions of interest then be collected using a Leica CM1950 cryostat, and placed in cold TBS. c-Fos IHC is performed using free-floating IHC methods as have been previously described, but with a new primary antibody. A protocol with the Abcam [2H2] (ab208942) mouse monoclonal antibody has been recently optimized, which has essentially no cross-reactivity. An HRP-conjugated secondary antibody is used for visualization by the biotin-streptavidin technique using 3,3′-diaminobenzidine as the chromagen (Vectastain Elite, Vector Laboratories). Examination of c-Fos expression in frontal cortex, hypothalamus, nucleus accumbens, ventral tegmental area, amygdala, BNST, and hippocampus are conducted.\nOn the basis of the distribution of FMRP (Fragile X mental retardation protein) in the adult mouse brain and considering neural systems implicated in cognitive and neuropsychiatric symptoms (e.g., anxiety, sensory hypersensitivity, and social deficits) present in FXS and ASD, the effects of FPT were evaluated on c-Fos expression in the hippocampus (CA1, CA3, and dentate gyrus (DG)), the basolateral amygdala (ventral (BLAv), posterior (BLAp), and anterior (BLAa)), the somatosensory (SS) cortex, the hypothalamus (periventricular hypothalamic nucleus, intermediate (PVi), posterior hypothalamic nucleus (PH), and dorsomedial nucleus of the hypothalamus (DMH)), the paraventricular nucleus of the thalamus (PVT), and the ventral retrosplenial area (RSPv). Shown in FIG. 15A and FIG. 15B are results from analyses of c-Fos expression in CA3 and the BLAa, respectively. There were no main effects of the independent variables on c-Fos in CA3; however, there was a significant treatment effect in BLAa (F(1, 12)=14.22, P=0.0027). […] The effect was large, but the difference was not statistically significant (P=0.0871, d=1.54)."}, "5HT7 [7]": {"molecular_target": "T4, 5HT7 (Homo sapiens, UniProt P34969)", "T4 sequence (P34969 whole entry)": "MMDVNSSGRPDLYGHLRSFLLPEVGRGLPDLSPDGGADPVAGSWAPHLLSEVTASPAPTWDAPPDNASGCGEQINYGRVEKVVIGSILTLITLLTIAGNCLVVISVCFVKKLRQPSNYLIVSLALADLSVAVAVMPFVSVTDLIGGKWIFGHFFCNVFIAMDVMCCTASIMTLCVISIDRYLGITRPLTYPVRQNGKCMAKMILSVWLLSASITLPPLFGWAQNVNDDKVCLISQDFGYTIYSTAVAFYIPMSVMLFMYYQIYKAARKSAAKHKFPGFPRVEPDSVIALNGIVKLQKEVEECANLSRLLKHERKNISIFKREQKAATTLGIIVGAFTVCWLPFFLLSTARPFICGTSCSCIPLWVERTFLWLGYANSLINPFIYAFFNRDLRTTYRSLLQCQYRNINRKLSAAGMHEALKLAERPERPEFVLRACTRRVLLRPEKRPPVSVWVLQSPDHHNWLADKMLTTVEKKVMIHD", "test": "5HT7 function, Gs-cAMP signaling (HEK293 cells)", "format": "cell-based", "parameters": "ATCC CRL-1573 (cells)", "conditions": "for Function at 5HT7: cAMP signaling, HCl", "from_the_text": "It is certain that the C(5) substituent impacts function. […] In FIG. 3, results of measured (S)-5-PAT scaffold yields with various function as 5HT7 ligands are compared with AS-19 and clozapine."}, "5HT7 [8]": {"molecular_target": "T4, 5HT7", "test": "Affinity (Ki) at 5HT7, HEK293 cells stably expressing 5HT7"}, "[9]": {"conditions": "mouse, brain, read-out: Brain concentration"}, "[10]": {"conditions": "mouse, plasma, read-out: Plasma concentration"}},
  "note": "“Also recorded” adds a separate entry of the source. Like-named read-outs stand apart in the source and are kept apart here.",
  "data": [
    {"compound": "CN(C)[C@H]1CCc2c(cccc2-c2ccccc2F)C1.Cl", "note": "[(S)-5-FPT, (2S)-5-(2-fluorophenyl)-N,N-dimethyl-1,2,3,4-tetrahydronaphthalen-2-amine HCl]", "values": [
      {"measurement": "Ki", "setting": "5HT2A receptors", "result": "~0.9", "unit": "µM"},
      {"measurement": "Ki", "setting": "5HT2B receptors", "result": 0.06, "unit": "µM"},
      {"measurement": "Affinity at D2 receptors", "setting": "D2 receptors", "result": "poor affinity"},
      {"measurement": "Activity at 50 CNS/peripheral sites", "setting": "50 CNS/peripheral sites", "result": "without activity at 50 CNS/peripheral sites"},
      {"measurement": "Stereotypic jumping", "setting": "C58/J mice", "result": "potently eliminated stereotypic jumping; also recorded: greater efficacy in this model than the recently reported mGluR5 negative allosteric modulator, GRN-529"},
      {"measurement": "DOI HTR at 3 hours post-administration", "setting": "C57BL/6J mice; 5.6 mg/kg, 3 hours post-administration", "result": "did not block the DOI HTR"},
      {"measurement": "Time for which attenuation of the DOI HTR remained significant", "setting": "C57BL/6J mice; 5.6 mg/kg, post-administration", "result": "up to 2 hours"},
      {"measurement": "DOI-elicited HTR", "setting": "C57BL/6J mice; mouse, in vivo, listed as (2S)-5-FPT, HCl", "result": "dose-dependently attenuated the DOI-elicited HTR; also recorded: significantly attenuated"},
      {"measurement": "Oral activity", "setting": "C57BL/6J mice; oral administration", "result": "orally active"},
      {"measurement": "Hyperlocomotion caused by MK-801", "setting": "C57BI/6J mice [1]; 5.6 mg/kg", "result": "significantly decreased hyperlocomotion"},
      {"measurement": "MK-801 elicited stereotypical rotations", "setting": "C57BI/6J mice [1]; 5.6 mg/kg", "result": "significantly reduced stereotypical rotations"},
      {"measurement": "Stereotypic rotational behavior, compound alone", "setting": "C57BI/6J mice [1]; without MK-801", "result": "neither (2S)-5-FPT nor AMP caused stereotypic rotational behavior"},
      {"measurement": "Hyperlocomotion caused by AMP", "setting": "C57BI/6J mice [2]", "result": "did not reduce hyperlocomotion caused by AMP; also recorded: did not significantly decrease hyperlocomotion elicited by amphetamine"},
      {"measurement": "Marble burying (repetitive behavior)", "setting": "FVB mice", "result": "reduces or eliminates repetitive behavior in all models"},
      {"measurement": "Locomotor behavior", "setting": "[3]", "result": "did not alter locomotion; also recorded: without altering locomotor behavior on its own"},
      {"measurement": "Grooming", "setting": "C57BI/6J mice [4]", "result": "decreasing grooming"},
      {"measurement": "Number of initiated social interactions", "setting": "C57BI/6J mice [4]; listed as (2S)-5-FPT, HCl", "result": "significantly increases the number of initiated social interactions"},
      {"measurement": "concentration at 30 min", "setting": "[5]; [9]", "result": 1780, "unit": "ng/g"},
      {"measurement": "concentration at 60 min", "setting": "[5]; [9]", "result": 2160, "unit": "ng/g"},
      {"measurement": "concentration at 90 min", "setting": "[5]; [9]", "result": 1460, "unit": "ng/g"},
      {"measurement": "Blood-brain barrier penetration", "setting": "[5]; mouse, in vivo", "result": "readily crosses the blood-brain barrier"},
      {"measurement": "concentration at 30 min", "setting": "[5]; [10]", "result": 114, "unit": "ng/mL"},
      {"measurement": "concentration at 60 min", "setting": "[5]; [10]", "result": 118, "unit": "ng/mL"},
      {"measurement": "concentration at 90 min", "setting": "[5]; [10]", "result": 70, "unit": "ng/mL"},
      {"measurement": "Peripheral clearance", "setting": "[5]; plasma levels lower than brain", "result": "rapidly cleared in the periphery"},
      {"measurement": "c-Fos expression in CA3 region of the hippocampus", "setting": "[6]; WT and KO mice", "result": "did not significantly increase c-Fos expression"},
      {"measurement": "c-Fos expression in the inferior colliculus", "setting": "[6]", "result": "did not affect the number of c-Fos positive cells"},
      {"measurement": "c-Fos expression in the inferior colliculus", "setting": "[6]; listed as FPT, HCl", "result": "no effect"},
      {"measurement": "c-Fos expression in other brain regions", "setting": "[6]; mouse, in vivo", "result": "did not significantly alter c-Fos expression in any other brain region examined"},
      {"measurement": "EC50", "setting": "5HT7 [7]", "result": 0.034, "unit": "µM"},
      {"measurement": "EMAX vs AS-19, 5-HT7 Gs-cAMP signaling", "setting": "5HT7 [7]", "result": 33, "unit": "%"},
      {"measurement": "Function at 5HT7", "setting": "5HT7 [7]", "result": "Partial agonist"},
      {"measurement": "Function at 5HT7", "setting": "5HT7 [7]; listed as (2S)—S-FPT", "result": "partial agonist"},
      {"measurement": "5-HT7 affinity of (S)-enantiomer over (R)-enantiomer", "setting": "5HT7 [8]", "result": "about 80 times"},
      {"measurement": "Ki", "setting": "5HT7 [8]; Affinity Ki ± SEM at 5HT7", "result": 0.005, "unit": "µM"},
      {"measurement": "Ki", "setting": "5HT7 [8]; read-out: Affinity Ki ± SEM at 5HT7, HCl", "result": "0.0053 ± 0.002", "unit": "µM"}
    ]}
  ]
}
